For experiment [1], the system named is SMMC-7721. Put plainly: Anticancer activity against human SMMC-7721 cells assessed as inhibition of cell proliferation at 1 uM measured after 72 hrs by MTT assay. In kind it is functional.
In experiment [2] the test system is SMMC-7721. Put plainly: Anticancer activity against human SMMC-7721 cells assessed as inhibition of cell proliferation at 10 uM measured after 72 hrs by MTT assay. In kind it is functional.
Experiment [3] has as its system SMMC-7721. Kind of experiment: Anticancer activity against human SMMC-7721 cells assessed as inhibition of cell proliferation measured after 72 hrs by MTT assay. It is filed as functional, cell-based. Particulars: SMMC-7721, 72 h. A general note: Tetrazolium dyes change colour on reduction, which living cells bring about.
Experiment [4] deals with SMMC-7721. Kind of experiment: Antimigratory activity against human SMMC-7721 cells assessed as inhibition of cell migration measured after 12 hrs by cell scratch assay. It is filed as functional, cell-based.
The test system of experiment [5] is SMMC-7721. Put plainly: Antimigratory activity against human SMMC-7721 cells assessed as inhibition of cell migration at 10 uM measured after 12 hrs by cell scratch assay. In kind it is functional, cell-based.
The test system of experiment [6] is SMMC-7721. Kind of experiment: Induction of apoptosis in human SMMC-7721 cells assessed as increase in caspase 3 level upto 20 uM incubated for 48 hrs by Western blot analysis. It is filed as functional, cell-based. Particulars: dose microM <=20, time 48.0 hrs. On the technique in general: Immunoblotting shows a protein as a band on a membrane.
Experiment [7] has as its system SMMC-7721. Kind of experiment: Induction of cell cycle arrest in human SMMC-7721 cells assessed as accumulation of cells at G2/M measured after 24 hrs by flow cytometry. It is filed as functional, cell-based.
Experiment [8] concerns SMMC-7721. Kind of experiment: Induction of apoptosis in human SMMC-7721 cells assessed as increase in PARP-1 level t 1 to 20 uM incubated for 48 hrs by Western blot analysis. In kind it is functional, cell-based. Particulars: dose 1-20 µM.
In experiment [9] the test system is SMMC-7721. Put plainly: Induction of cell cycle arrest in human SMMC-7721 cells assessed as accumulation of cells at […] measured after 24 hrs by flow cytometry. In kind it is functional, cell-based. (Flow cytometry measures light scatter and fluorescence of single cells or particles in a stream.)
The subject of experiment [10] is SMMC-7721. Put plainly: Cytotoxicity against human SMMC-7721 cells assessed as change in cell morphology at 1 uM incubated for 24 hrs. It is filed as functional, cell-based.
The subject of experiment [11] is SMMC-7721. Kind of experiment: Induction of apoptosis in human SMMC-7721 cells as late apoptotic cells at 20 uM measured after 48 hrs by annexin V-FITC/PI based flow cytometric analysis relative to control. It is filed as functional.
Experiment [12] relates to SMMC-7721. Put plainly: Cytotoxicity against human SMMC-7721 cells assessed as change in cell morphology at 10 uM incubated for 48 hrs. It is filed as functional, cell-based.
The subject of experiment [13] is SMMC-7721. Kind of experiment: Induction of apoptosis in human SMMC-7721 cells assessed as increase in PARP-1 level t 1 to 5 uM incubated for 48 hrs by Western blot analysis. In kind it is functional, cell-based. Particulars: dose 1-5 µM.
The subject of experiment [14] is SMMC-7721. Kind of experiment: Induction of apoptosis in human SMMC-7721 cells as late apoptotic cells at 5 uM measured after 48 hrs by annexin V-FITC/PI based flow cytometric analysis relative to control. It is filed as functional.
Experiment [15] deals with SMMC-7721. Put plainly: Induction of apoptosis in human SMMC-7721 cells at 1 uM measured after 48 hrs by annexin V-FITC/PI based flow cytometric analysis relative to control. In kind it is functional.
Experiment [16] relates to SMMC-7721. Put plainly: Induction of apoptosis in human SMMC-7721 cells assessed as decrease in PARP-1 level t 10 to 20 uM incubated for 48 hrs by Western blot analysis. Particulars: dose 10-20 µM. In kind it is functional, cell-based.
The subject of experiment [17] is SMMC-7721. Put plainly: Induction of apoptosis in human SMMC-7721 cells at 5 uM measured after 48 hrs by annexin V-FITC/PI based flow cytometric analysis relative to control. In kind it is functional.

The values below come from ChEMBL document CHEMBL4680350, “Novel penta-1,4-diene-3-one derivatives containing quinazoline and oxime ether fragments: Design, synthesis and bioactivity” (Bioorg Med Chem, 2021).

Active and inactive are the calls of the source. No cut-off for these calls is given here.

For the compound `Cc1cccc(COc2ccc(/C=C/C(/C=C/c3ccccn3)=N/Oc3ncnc4cc(Cl)ccc34)cc2)c1`, the inhibition at 1 µM in the experiment on SMMC-7721 [1] turned out to be 78.6%. Further, the inhibition at 10 µM in the experiment with SMMC-7721 [2] was 95.6%.
In the case of `Cc1cccc2ncnc(O/N=C(\C=C\c3ccccn3)/C=C/c3ccccc3OCc3ccc(Cl)cc3Cl)c12`, in the experiment on SMMC-7721 [1], the inhibition at 1 µM worked out at 90.8%. In the experiment with SMMC-7721 [2], the inhibition at 10 µM amounted to 93.9%.
Regarding `Clc1ccc(COc2ccc(/C=C/C(/C=C/c3ccccn3)=N/Oc3ncnc4cc(Cl)ccc34)cc2)c(Cl)c1`, the inhibition at 10 µM with SMMC-7721 [2] amounted to 23.6%.
As for `Clc1ccc(COc2ccccc2/C=C/C(/C=C/c2ccccn2)=N/Oc2ncnc3cc(Cl)ccc23)c(Cl)c1`, the 50% inhibitory concentration (IC50) in the experiment with SMMC-7721 [3] stood at 10400 nM. The outcome in the experiment with SMMC-7721 [4] and in the experiment on SMMC-7721 [5] was inactive. Moreover, the inhibition at 1 µM with SMMC-7721 [1] was found to be 23.6%. Further, the inhibition at 10 µM in the experiment with SMMC-7721 [2] is 91.8%. Further, the outcome in the experiment with SMMC-7721 [6] and in the experiment on SMMC-7721 [7] was Active.
Consider `Clc1ccc(COc2ccc(/C=C/C(/C=C/c3cccs3)=N/Oc3ncnc4ccccc34)cc2)cc1`, for which the inhibition at 1 µM in the experiment with SMMC-7721 [1] amounted to 89.3%. Besides, in the experiment on SMMC-7721 [2], the inhibition at 10 µM was 97.5%.
Consider `Clc1ccc(COc2ccc(/C=C/C(/C=C/c3ccccn3)=N/Oc3ncnc4ccccc34)cc2)c(Cl)c1`, for which the inhibition at 10 µM with SMMC-7721 [2] was determined as 89.6%.
As for `Cc1cccc(COc2ccc(/C=C/C(/C=C/c3ccccn3)=N/Oc3ncnc4cccc(C)c34)cc2)c1`, the inhibition at 1 µM with SMMC-7721 [1] was found to be 93.4%. Besides, in the experiment on SMMC-7721 [2], the inhibition at 10 µM was determined as 97%.
On to `Clc1ccc(COc2ccccc2/C=C/C(/C=C/c2ccccn2)=N/Oc2ncnc3ccccc23)c(Cl)c1`, for which the half-inhibitory concentration (IC50) in the experiment with SMMC-7721 [3] was 8550 nM. For the same compound, the outcome in the experiment with SMMC-7721 [4] and with SMMC-7721 [5] was inactive. In the experiment with SMMC-7721 [1], the inhibition at 1 µM was determined as 33.3%. Moreover, the inhibition at 10 µM in the experiment with SMMC-7721 [2] amounted to 87.5%. Also, the result in the experiment with SMMC-7721 [8], in the experiment on SMMC-7721 [9] and in the experiment with SMMC-7721 [6] was Active.
For the compound `Clc1ccc(COc2ccc(/C=C/C(/C=C/c3ccccn3)=N/Oc3ncnc4ccccc34)cc2)cc1`, the inhibition at 1 µM in the experiment on SMMC-7721 [1] came to 91.2%. Further, the inhibition at 10 µM with SMMC-7721 [2] was found to be 94.4%.
Turning to `Cc1cccc2ncnc(O/N=C(/C=C/c3ccc(OCc4ccccc4Cl)cc3)\C=C\c3ccccn3)c12`, the inhibition at 1 µM in the experiment on SMMC-7721 [1] came to 77%. In addition, the inhibition at 10 µM in the experiment with SMMC-7721 [2] is 84.7%.
For `Cc1cccc2ncnc(O/N=C(\C=C\c3ccccn3)/C=C/c3ccccc3OCc3ccc(Cl)cc3)c12`, in the experiment on SMMC-7721 [1], the inhibition at 1 µM amounted to 93.4%. Further, the inhibition at 10 µM with SMMC-7721 [2] worked out at 94.5%.
As for `Cc1cccc2ncnc(O/N=C(\C=C\c3ccccn3)/C=C/c3ccccc3OCc3ccccc3Cl)c12`, the inhibition at 1 µM in the experiment with SMMC-7721 [1] was 86.8%. Further, the inhibition at 10 µM in the experiment on SMMC-7721 [2] amounted to 95.7%.
As for `Clc1ccc(COc2ccccc2/C=C/C(/C=C/c2ccccn2)=N/Oc2ncnc3cc(Cl)ccc23)cc1`, the inhibition at 1 µM in the experiment with SMMC-7721 [1] amounted to 94%. Moreover, in the experiment on SMMC-7721 [2], the inhibition at 10 µM amounted to 94.8%.
In the same order, the values of `Fc1ccccc1COc1ccc(/C=C/C(/C=C/c2ccccn2)=N/Oc2ncnc3cc(Cl)ccc23)cc1` are 81.1% and 91.2%.
With `Clc1ccc2c(O/N=C(/C=C/c3ccc(OCc4ccccc4Cl)cc3)\C=C\c3ccccn3)ncnc2c1`, in the experiment with SMMC-7721 [1], the inhibition at 1 µM worked out at 18.1%. Also, in the experiment on SMMC-7721 [2], the inhibition at 10 µM was 84.7%.
Regarding `Clc1ccc(COc2ccc(/C=C/C(/C=C/c3ccccn3)=N/Oc3ncnc4cc(Cl)ccc34)cc2)cc1`, the IC50 in the experiment with SMMC-7721 [3] turned out to be 630 nM. In addition, the result in the experiment on SMMC-7721 [10], in the experiment on SMMC-7721 [12], in the experiment on SMMC-7721 [8], with SMMC-7721 [6] and in the experiment on SMMC-7721 [7] was Active. In the experiment on SMMC-7721 [11], this compound gave an Activity of 88%. The result in the experiment on SMMC-7721 [4] and with SMMC-7721 [5] was inactive. In addition, in the experiment with SMMC-7721 [1], the inhibition at 1 µM turned out to be 67.4%. For the same compound, the inhibition at 10 µM in the experiment with SMMC-7721 [2] was found to be 88.1%.
As for `Clc1ccccc1COc1ccc(/C=C/C(/C=C/c2ccccn2)=N/Oc2ncnc3ccccc23)cc1`, the inhibition at 1 µM with SMMC-7721 [1] came out at 10.1%. In addition, in the experiment on SMMC-7721 [2], the inhibition at 10 µM came to 96.9%.
`Clc1ccccc1COc1ccccc1/C=C/C(/C=C/c1ccccn1)=N/Oc1ncnc2ccccc12`: the inhibition at 1 µM in the experiment with SMMC-7721 [1] was 95.7%. Besides, the inhibition at 10 µM with SMMC-7721 [2] is 96%.
In the case of `Clc1ccc2c(O/N=C(\C=C\c3ccccn3)/C=C/c3ccccc3OCc3ccccc3Cl)ncnc2c1`, the inhibition at 1 µM in the experiment with SMMC-7721 [1] came to 94.8%. The inhibition at 10 µM with SMMC-7721 [2] amounted to 94.5%.
Consider `Cc1cccc(COc2ccc(/C=C/C(/C=C/c3ccccn3)=N/Oc3ncnc4ccccc34)cc2)c1`, for which the IC50 with SMMC-7721 [3] turned out to be 640 nM. Besides, the result with SMMC-7721 [13], in the experiment on SMMC-7721 [10], with SMMC-7721 [16], with SMMC-7721 [12], with SMMC-7721 [6] and with SMMC-7721 [7] was Active. Further, the Activity stood at 99.4% in the experiment on SMMC-7721 [14], 23% in the experiment on SMMC-7721 [15] and 99.9% in the experiment on SMMC-7721 [17]. In addition, the outcome in the experiment with SMMC-7721 [4] and in the experiment on SMMC-7721 [5] was inactive. Besides, in the experiment on SMMC-7721 [1], the inhibition at 1 µM came out at 69.2%. Also, the inhibition at 10 µM with SMMC-7721 [2] is 97.5%.
Regarding `Fc1ccccc1COc1ccccc1/C=C/C(/C=C/c1ccccn1)=N/Oc1ncnc2cc(Cl)ccc12`, the outcome in the experiment on SMMC-7721 [10] and with SMMC-7721 [12] was Active. Also, the inhibition at 1 µM in the experiment on SMMC-7721 [1] amounted to 94.2%. In the experiment with SMMC-7721 [2], the inhibition at 10 µM was 94.8%.
On to `Nc1ccn([C@@H]2O[C@H](CO)[C@@H](O)C2(F)F)c(=O)n1` [GEMCITABINE], for which, in the experiment on SMMC-7721 [3], the IC50 was found to be 1400 nM. For the same compound, the inhibition at 1 µM in the experiment on SMMC-7721 [1] amounted to 38.5%. Moreover, the inhibition at 10 µM in the experiment with SMMC-7721 [2] was 61.5%.

A word on the inhibition: it is how much of the control response was suppressed. A word on the IC50: it is the concentration that inhibits the measured activity by half.
